Assay results published in patent US8735406B2, “8-oxodihydropurine derivative” (Dainippon Sumitomo Pharma Co., Ltd., priority 2009, dated 2014).
Where two headings read alike, the source gives them in different places.

Target: T1, FAAH (Rattus norvegicus, UniProt P97612)
T1 construct: Preparation of Rat Brain Membranes Preparations (FAAH Enzyme Solution); from tissue; host or cells: rat cerebrum (brain membrane preparation)
T1 sequence (P97612 1-579): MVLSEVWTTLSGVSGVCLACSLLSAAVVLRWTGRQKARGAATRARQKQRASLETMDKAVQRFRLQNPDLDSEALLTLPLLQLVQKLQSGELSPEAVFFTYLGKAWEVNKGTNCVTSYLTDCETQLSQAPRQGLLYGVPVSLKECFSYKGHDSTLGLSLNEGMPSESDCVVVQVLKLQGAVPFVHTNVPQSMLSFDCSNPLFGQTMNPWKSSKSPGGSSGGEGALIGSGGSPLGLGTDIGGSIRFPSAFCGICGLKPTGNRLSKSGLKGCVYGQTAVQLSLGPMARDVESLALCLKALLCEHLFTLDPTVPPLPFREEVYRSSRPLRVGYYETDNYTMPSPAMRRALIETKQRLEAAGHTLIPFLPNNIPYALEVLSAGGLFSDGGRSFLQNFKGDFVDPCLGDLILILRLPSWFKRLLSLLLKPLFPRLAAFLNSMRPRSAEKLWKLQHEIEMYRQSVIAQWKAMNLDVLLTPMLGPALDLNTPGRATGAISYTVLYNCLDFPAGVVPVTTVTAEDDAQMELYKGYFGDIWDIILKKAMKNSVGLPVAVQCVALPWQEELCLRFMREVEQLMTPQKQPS
Experiment: Determination of FAAH inhibitory activity in rat (rat brain membrane preparations, [3H]-anandamide hydrolysis)
Assay type: biochemical
Conditions: for IC50: read-out: FAAH Inhibition IC50
Summary of the method: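 Compounds tested from 0.1 nM to 1 μM to derive IC50 against FAAH hydrolysis in rat brain membrane preparations (100 μg/mL). A 10-min 37 °C preincubation was followed by 10 min with [3H]-anandamide (2 nM) mixed with 2 μM unlabelled anandamide. Radioactive ethanolamine was extracted into the water/methanol layer and counted.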

[1] = rat brain membrane preparations, 100 nM test substance, read-out: FAAH Inhibition, Inhibition Rate at 100 nM
[2] = rat brain membrane preparations, test substance 0.1 nM to 1 μM

inhibition at 0.1 µM [1] [%] | IC50 [2] [nM] | inhibition at 0.1 µM (at 100 nM, rat brain membrane preparations, read-out: FAAH Inhibition Inhibition Rate at 100 nM) [%] | IC50 (rat brain membrane preparations) [nM] | SMILES | inhibition at 0.1 µM (read-out: FAAH Inhibition, Inhibition Rate at 100 nM) [%]
100 | 7 | – | – | Cn1c(=O)n(C(=O)N2CCCC2)c2cnc(-c3ccccc3)nc21 [Example 16, 9-Methyl-2-phenyl-7-(pyrrolidin-1-ylcarbonyl)-7,9-dihydro-8H-purine-8-one] | –
100 | 6 | – | – | Cn1c(=O)n(C(=O)N2CCCC2)c2nc(-c3cccc(OC(F)(F)F)c3)ncc21 [Example 236, 7-Methyl-9-(pyrrolidin-1-ylcarbonyl)-2-[3-(trifluoromethoxy)phenyl]-7,9-dihydro-8H-purine-8-one] | –
90 | 12 | – | – | COCc1ncc2c(n1)n(C)c(=O)n2C(=O)N1CC(c2ccccc2Cl)C1 [Example 453, 7-{[3-(2-Chlorophenyl)azetidin-1-yl]carbonyl}-2-(methoxymethyl)-9-methyl-7,9-dihydro-8H-purine-8-one] | –
103 | 5 | – | – | COc1cccc(-c2ncc3c(n2)n(C)c(=O)n3C(=O)N(C)CCc2ccncc2)c1 [Example 115, 2-(3-Methoxyphenyl)-N,9-dimethyl-8-oxo-N-[2-(pyridin-4-yl)ethyl]-8,9-dihydro-7H-purine-7-carboxamide] | –
131 | 1 | – | – | COCc1ncc2c(n1)n(C)c(=O)n2C(=O)N1CC(c2cccc(Cl)c2)C1 [compound 447] | –
84 | 6 | – | – | CN(C)C(=O)n1c(=O)n(C)c2cnc(CCc3cccc(OCC4CC4)c3)nc21 [compound 519] | –
– | – | 108 | 11 | CN(C)C(=O)n1c(=O)n(C)c2cnc(Cc3ccc(Cl)cc3)nc21 [compound 653] | –
102 | 19 | – | – | Cc1ccc(-c2ncc3c(n2)n(C)c(=O)n3C(=O)N2CCCC2)cc1 [Example 171, 9-Methyl-2-(4-methylphenyl)-7-(pyrrolidin-1-ylcarbonyl)-7,9-dihydro-8H-purine-8-one] | –
99 | 37 | – | – | COc1cccc(-c2ncc3c(n2)n(C)c(=O)n3C(=O)N2CCN(C3CCCCC3)CC2)c1 [Example 97, 7-[(4-Cyclohexylpiperazin-1-yl)carbonyl]-2-(3-methoxyphenyl)-9-methyl-7,9-dihydro-8H-purine-8-one] | –
94 | 42 | – | – | Cc1ccccc1N1CCN(C(=O)n2c(=O)n(C)c3nc(-c4ccccc4)ncc32)CC1 [Example 130, 9-Methyl-7-{[4-(2-methylphenyl)piperazin-1-yl]carbonyl}-2-phenyl-7,9-dihydro-8H-purine-8-one] | –
45 | – | – | – | COc1cccc(-c2ncc3c(n2)n(C(=O)N(C)C)c(=O)n3C)c1 [Example 322, 2-(3-Methoxyphenyl)-N,N,7-trimethyl-8-oxo-7,8-dihydro-9H-purine-9-carboxamide] | –
86 | 47 | – | – | COc1cccc(Cc2ncc3c(n2)n(C(=O)N2CCCC2)c(=O)n3C)c1 [Example 288, 2-(3-Methoxybenzyl)-7-methyl-9-(pyrrolidin-1-ylcarbonyl)-7,9-dihydro-8H-purine-8-one] | –
136 | 10 | – | – | CCOCc1ncc2c(n1)n(C)c(=O)n2C(=O)N1CC(c2ccc(OCC)cc2)C1 [Example 463, 2-(Ethoxymethyl)-7-{[3-(4-ethoxyphenyl)azetidin-1-yl]carbonyl}-9-methyl-7,9-dihydro-8H-purine-8-one] | –
98 | 10 | – | – | CCCCc1ncc2c(n1)n(C)c(=O)n2C(=O)N1CCCC1 [Example 274, 2-Butyl-9-methyl-7-(pyrrolidin-1-ylcarbonyl)-7,9-dihydro-8H-purine-8-one] | –
99 | 8 | – | – | CCN(C)C(=O)n1c(=O)n(C)c2nc(Cc3ccccc3)ncc21 [Example 278, 2-Benzyl-N-ethyl-N,9-dimethyl-8-oxo-8,9-dihydro-7H-purine-7-carboxamide] | –
65 | 14 | – | – | COCCCc1ncc2c(n1)n(C)c(=O)n2C(=O)N1CC(c2ccccc2)C1 [Example 383] | –
76 | 62 | – | – | COc1cccc(-c2ncc3c(n2)n(C)c(=O)n3C(=O)N2CCOCC2)c1 [Example 58] | –
100 | 10 | – | – | CN(C)C(=O)n1c(=O)n(C)c2cnc(CCc3cccc(OC(F)(F)F)c3)nc21 [compound 495] | –
100 | 6 | – | – | CN(C)C(=O)n1c(=O)n(C)c2cnc(CCc3cc(F)c(F)c(F)c3)nc21 [compound 504] | –
102 | 3 | – | – | COCc1ncc2c(n1)n(C)c(=O)n2C(=O)N1CC[C@H](Oc2ccc(F)cc2)C1 [Example 481] | –
101 | 5 | – | – | COc1cccc(-c2ncc3c(n2)n(C)c(=O)n3C(=O)N2CCC2)c1 [Example 57, 7-(Azetidin-1-ylcarbonyl)-2-(3-methoxyphenyl)-9-methyl-7,9-dihydro-8H-purine-8-one] | –
103 | 3 | – | – | COc1cccc(-c2ncc3c(n2)n(C)c(=O)n3C(=O)N(C)CCc2ccc(Cl)cc2Cl)c1 [Example 110, N-[2-(2,4-Dichlorophenyl)ethyl]-2-(3-methoxyphenyl)-N,9-dimethyl-8-oxo-8,9-dihydro-7H-purine-7-carboxamide] | –
82 | 39 | – | – | Cn1c(=O)n(C(=O)N2CCC2)c2cnc(Cc3ccccc3Cl)nc21 [compound 377] | –
5 | > 100 | – | – | O=C(N1CCCC1)n1c(=O)n(CCN2CCCC2)c2nc(-c3ccccc3)ncc21 [Example 310] | –
102 | < 1 | – | – | CCN(C)C(=O)n1c(=O)n(C)c2cnc(-c3cccc(OC(F)(F)F)c3)nc21 [compound 341] | –
116 | 3 | – | – | COc1cccc(-c2ncc3c(n2)n(C)c(=O)n3C(=O)N(C)CCOc2ccc(Cl)cc2)c1 [Example 77, N-[2-(4-Chlorophenoxy)ethyl]-2-(3-methoxyphenyl)-N,9-dimethyl-8-oxo-8,9-dihydro-7H-purine-7-carboxamide] | –
98 | 4 | – | – | COc1ccc(-c2ncc3c(n2)n(C)c(=O)n3C(=O)N2CCCC2)cn1 [Example 206, 2-(6-Methoxypyridin-3-yl)-9-methyl-7-(pyrrolidin-1-ylcarbonyl)-7,9-dihydro-8H-purine-8-one] | –
96 | 11 | – | – | Cn1c(=O)n(C(=O)N2CCC2)c2cnc(COc3cccc(OC(F)F)c3)nc21 [Example 437] | –
99 | 6 | – | – | Cn1c(=O)n(C(=O)N2CCCC2)c2cnc(-c3ccc(F)nc3)nc21 [Example 207, 2-(6-Fluoropyridine-3-yl)-9-methyl-7-(pyrrolidin-1-ylcarbonyl)-7,9-dihydro-8H-purine-8-one] | –
46 | 118 | – | – | COCc1ncc2c(n1)n(C)c(=O)n2C(=O)N1CC(Oc2ccccc2C)C1 [Example 478] | –

SMILES | inhibition at 0.1 µM [1] [%] | IC50 [2] [nM] | inhibition at 0.1 µM (at 100 nM, rat brain membrane preparations, read-out: FAAH Inhibition Inhibition Rate at 100 nM) [%] | IC50 (rat brain membrane preparations) [nM] | inhibition at 0.1 µM (read-out: FAAH Inhibition, Inhibition Rate at 100 nM) [%]
COc1ccc(CCN(C)C(=O)n2c(=O)n(C)c3nc(-c4cccc(OC)c4)ncc32)cc1 [Example 93, 2-(3-Methoxyphenyl)-N-[2-(4-methoxyphenyl)ethyl]-N,9-dimethyl-8-oxo-8,9-dihydro-7H-purine-7-carboxamide] | – | 5 | – | – | 100
